Measured values from ChEMBL document CHEMBL1201862, “PubChem BioAssay data set” (2004).
Values belong to the compound of their own block, whether it stands above or below them. The source made the active and inactive calls.

How the values were obtained:
[1] = Dd2 parasite growth inhibition in erythrocytes – SYBR Green, dry powder samples, set 9, dose response (AID 1159568); format: functional, cell-based
[2] = off-target signal loss in HeLa-CEM21 co-culture – HeLa F-luc CTL cells, cherry-picked, counter-screen for HIV-1 Env fusion inhibitor project, dose response (AID 652040); format: functional, cell-based;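 further: potency for signal decrease marking cytotoxic or nonspecific inhibition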
[3] = blockers of HIV-1 envelope-mediated cell-cell fusion – cherry-pick, dose response (AID 652057); format: functional, cell-based
[4] = blockers of HIV-1 ZM109 envelope-driven cell-cell fusion – HeLa effector, CEM target cells, luciferase, cherry-pick, dose response (AID 652058); format: functional, cell-based;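 further: luciferase signal from HIV-1 Env mediated cell-cell fusion of effector and target cells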
[5] = HIV-1 AD8 envelope cell-cell fusion blockers – cherry-pick, dose response (AID 652062); format: functional, cell-based;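 further: luciferase signal from cell-cell fusion driven by HIV-1 clade B AD8 Env; potency is for inhibitors of fusion seen as a drop in luminescence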
[6] = activation of miR-122 Renilla sensor silencing – cell-based, Huh7 psiCHECK-miR122, Renilla luciferase, cherry-picked, dose response (AID 651956); format: functional;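 further: huh7 hepatoma cells stably carrying a psiCHECK-2 miR-122 sensor plasmid; renilla luciferase signal reporting endogenous miR-122 activity after 48 h compound exposure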
[7] = molecular target: T1, Low molecular weight phosphotyrosine protein phosphatase (Homo sapiens, UniProt P24666); format: functional; settings: read-out: IC50_Mean
T1 sequence (P24666 whole entry): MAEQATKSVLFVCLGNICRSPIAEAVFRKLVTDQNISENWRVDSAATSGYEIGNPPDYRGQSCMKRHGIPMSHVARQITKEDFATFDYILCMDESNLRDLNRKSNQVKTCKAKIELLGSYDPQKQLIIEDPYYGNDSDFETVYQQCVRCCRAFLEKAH

[8] = molecular target: T1, Low molecular weight phosphotyrosine protein phosphatase; format: functional; settings: read-out: IC50_Mean; remark: listed apart in the source
[9] = molecular target: Eukaryotic translation initiation factor 4E (Mus musculus, UniProt P63073); test: blockers of eIF4G binding by eIF4E – biochemical, TR-FRET, dose response (AID 855); format: functional;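 further: potency for disrupting eIF4E binding to eIF4GI seen as loss of FRET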
[10] = intracellular Trypanosoma cruzi inhibitors in host cells – cell-based, plate reader, cherry-pick samples, set 3, dose response (AID 651818); format: functional;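 further: compounds incubated with infected cells for about four days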
[11] = reduction of Shn3 3'UTR-driven luciferase in osteoblasts – cell-based, Clone20 osteoblasts, firefly luciferase, cherry-picked, dose response (AID 624132); format: functional;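 further: firefly luciferase luminescence from reporter carrying the Shn3 3'UTR in osteoblasts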
[12] = loss of viability in HepG2 cells – cell-based, CellTiter-Glo, cherry-picked, cytotoxicity control for Shn3 inhibitor project, dose response (AID 624134); format: functional
INS1 = test: INS-1E survival protection against cytokine death – cell-based, luminescence, retest, dose response (AID 449756); format: functional; settings: Rattus norvegicus;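 further: cell death triggered by IL-1 beta plus TNF-alpha plus IFN-gamma mixture; protective hits raise ATP signal compared with cytokine alone wells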
Protein Wnt-3a = Protein Wnt-3a (Mus musculus, UniProt P27467); test: antagonism of Wnt3a pathway luciferase reporter – Wnt-LIGHT cells, luminescence, selectivity assay for Gli-SUFU antagonist project, dose response (AID 651570); format: functional; settings: read-out: IC50_Mean;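 further: Wnt-LIGHT reporter cells stimulated with conditioned medium from Wnt3a-producing cells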
Cytochrome P450 3A4 = Cytochrome P450 3A4 (Homo sapiens, UniProt P08684);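 further: CYP3A4 tested as one member of a cytochrome P450 panel screen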
[13] = molecular target: T2, Mannose-6-phosphate isomerase (Homo sapiens, UniProt P34949); test: MPI inhibition at elevated mannose 6-phosphate – biochemical, fluorescence intensity, high mannose 6-phosphate, primary screen (AID 1220)
T2 sequence (P34949 whole entry): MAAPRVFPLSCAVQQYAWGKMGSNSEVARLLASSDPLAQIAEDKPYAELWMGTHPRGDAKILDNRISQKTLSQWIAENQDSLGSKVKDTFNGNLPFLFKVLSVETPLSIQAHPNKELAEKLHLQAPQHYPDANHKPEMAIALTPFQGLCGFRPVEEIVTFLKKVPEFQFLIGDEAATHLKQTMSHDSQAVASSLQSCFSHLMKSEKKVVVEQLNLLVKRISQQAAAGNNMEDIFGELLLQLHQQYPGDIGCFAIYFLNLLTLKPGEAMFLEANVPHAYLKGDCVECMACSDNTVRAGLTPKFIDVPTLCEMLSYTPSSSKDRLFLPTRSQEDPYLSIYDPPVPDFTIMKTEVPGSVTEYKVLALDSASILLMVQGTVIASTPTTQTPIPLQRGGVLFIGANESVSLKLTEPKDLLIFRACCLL

Cytochrome P450 2D6 = Cytochrome P450 2D6 (Homo sapiens, UniProt P10635);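 further: CYP2D6 member of a cytochrome P450 panel assay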
[14] = A549 cell cytotoxicity, dose response, cytotoxicity control, plate reader, cherry-pick, antagonist series (AID 743412); format: functional, cell-based
[15] = blockers of bursicon-stimulated LGR2 cAMP reporter – cell-based, HEK293, CRE-luciferase reporter, cherry pick, set 2, dose response (AID 743343); format: functional;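 further: transfected cells were stimulated with diluted bursicon conditioned medium after compound addition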
[16] = viability loss in HEK293 cells – cell-based, plate reader, cherry-picked samples, cytotoxicity control, dose response (AID 743446); format: functional
[17] = blockade of melanocortin 4 receptor signaling – cell-based, plate reader, cherry pick, counter-screen for LGR2 antagonist project, dose response (AID 743444); format: functional;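 further: transfected HEK 293 cells stimulated with alpha-MSH peptide; potency of inhibitors of the alpha-MSH evoked signal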
[18] = molecular target: Disintegrin and metalloproteinase domain-containing protein 17 (Homo sapiens, UniProt P78536); test: inhibition of ADAM17 substrate cleavage – biochemical, quenched FRET substrate, counter-screen for ADAM10 exosite inhibitor project, dose response (AID 743253)
[19] = Fluorescence-based cell-based high throughput dose response assay for inhibitors of the interaction of nucleotide-binding oligomerization domain containing 2 (NOD2) and the receptor-interacting serine-threonine kinase 2 (RIPK2).; format: functional; settings: Homo sapiens
[20] = potency of ADAM10 substrate cleavage blockers – biochemical, QFRET, dose response (AID 743254);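 further: ADAM10 enzyme with the DM2 quenched FRET peptide as substrate; EDANS fluorescence gain as the protease cuts the substrate; inhibitor potency against ADAM10 proteolytic activity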
[21] = molecular target: T3, Calpain-2 catalytic subunit (Sus scrofa, UniProt P43367); test: m-calpain protease blockers, concentration series – biochemical, fluorogenic peptide substrate, dose response (AID 1420); format: functional
T3 sequence (P43367 whole entry): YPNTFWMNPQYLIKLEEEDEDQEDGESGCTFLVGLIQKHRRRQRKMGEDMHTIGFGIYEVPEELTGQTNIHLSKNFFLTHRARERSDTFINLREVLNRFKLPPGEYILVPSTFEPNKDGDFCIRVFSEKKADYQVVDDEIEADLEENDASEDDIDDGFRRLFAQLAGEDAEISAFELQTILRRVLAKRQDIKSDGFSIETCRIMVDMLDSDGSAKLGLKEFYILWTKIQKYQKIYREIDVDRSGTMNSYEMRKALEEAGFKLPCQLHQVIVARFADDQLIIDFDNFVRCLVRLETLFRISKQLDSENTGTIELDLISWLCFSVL

[22] = molecular target: T4, DNA repair and recombination protein RAD54-like (Homo sapiens, UniProt Q92698); test: RAD54 Holliday junction migration blockers – biochemical, fluorescence, cherry-picked samples, dose series, confirmation (AID 651657); format: functional
T4 sequence (Q92698 whole entry): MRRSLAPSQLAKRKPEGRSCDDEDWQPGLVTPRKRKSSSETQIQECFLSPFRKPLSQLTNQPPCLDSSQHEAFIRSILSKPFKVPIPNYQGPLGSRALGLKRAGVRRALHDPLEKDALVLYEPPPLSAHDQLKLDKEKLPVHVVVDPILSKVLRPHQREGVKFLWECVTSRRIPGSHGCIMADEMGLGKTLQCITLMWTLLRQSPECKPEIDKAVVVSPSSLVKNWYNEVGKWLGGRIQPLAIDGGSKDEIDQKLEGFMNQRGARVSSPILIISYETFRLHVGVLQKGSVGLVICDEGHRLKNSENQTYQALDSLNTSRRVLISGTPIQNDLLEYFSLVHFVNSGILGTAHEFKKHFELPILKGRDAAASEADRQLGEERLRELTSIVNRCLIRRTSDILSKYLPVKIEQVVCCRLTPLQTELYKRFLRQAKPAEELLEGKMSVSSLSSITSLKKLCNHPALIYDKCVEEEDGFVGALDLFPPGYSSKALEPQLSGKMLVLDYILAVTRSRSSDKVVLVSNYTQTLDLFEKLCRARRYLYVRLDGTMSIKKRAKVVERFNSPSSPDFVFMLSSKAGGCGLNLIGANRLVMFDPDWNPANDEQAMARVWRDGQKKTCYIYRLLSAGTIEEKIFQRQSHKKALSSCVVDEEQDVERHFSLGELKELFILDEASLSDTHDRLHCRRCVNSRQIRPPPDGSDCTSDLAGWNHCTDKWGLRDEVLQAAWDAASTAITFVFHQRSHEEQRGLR

Protein skinhead-1 = molecular target: T5, Protein skinhead-1 (Caenorhabditis elegans, UniProt P34707); format: functional
T5 sequence (P34707 whole entry): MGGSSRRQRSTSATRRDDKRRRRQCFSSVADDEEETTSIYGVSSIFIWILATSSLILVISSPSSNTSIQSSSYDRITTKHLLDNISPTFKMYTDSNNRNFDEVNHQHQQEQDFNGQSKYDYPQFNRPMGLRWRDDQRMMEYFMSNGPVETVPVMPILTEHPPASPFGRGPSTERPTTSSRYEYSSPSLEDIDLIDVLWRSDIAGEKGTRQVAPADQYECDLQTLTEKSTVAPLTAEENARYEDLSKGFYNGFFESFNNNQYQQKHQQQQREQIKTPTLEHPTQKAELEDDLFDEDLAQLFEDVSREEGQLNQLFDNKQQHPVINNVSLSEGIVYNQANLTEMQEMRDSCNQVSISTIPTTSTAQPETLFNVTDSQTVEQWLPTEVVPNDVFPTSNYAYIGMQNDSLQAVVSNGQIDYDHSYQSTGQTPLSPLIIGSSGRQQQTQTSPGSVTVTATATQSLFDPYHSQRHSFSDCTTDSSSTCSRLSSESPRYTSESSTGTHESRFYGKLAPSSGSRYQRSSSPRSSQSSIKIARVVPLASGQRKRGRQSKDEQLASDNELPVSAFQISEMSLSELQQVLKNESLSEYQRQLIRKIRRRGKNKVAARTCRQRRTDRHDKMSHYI

Chain of Disintegrin and metalloproteinase domain-containing protein 17 (P78536 whole entry, the tested form may be a part): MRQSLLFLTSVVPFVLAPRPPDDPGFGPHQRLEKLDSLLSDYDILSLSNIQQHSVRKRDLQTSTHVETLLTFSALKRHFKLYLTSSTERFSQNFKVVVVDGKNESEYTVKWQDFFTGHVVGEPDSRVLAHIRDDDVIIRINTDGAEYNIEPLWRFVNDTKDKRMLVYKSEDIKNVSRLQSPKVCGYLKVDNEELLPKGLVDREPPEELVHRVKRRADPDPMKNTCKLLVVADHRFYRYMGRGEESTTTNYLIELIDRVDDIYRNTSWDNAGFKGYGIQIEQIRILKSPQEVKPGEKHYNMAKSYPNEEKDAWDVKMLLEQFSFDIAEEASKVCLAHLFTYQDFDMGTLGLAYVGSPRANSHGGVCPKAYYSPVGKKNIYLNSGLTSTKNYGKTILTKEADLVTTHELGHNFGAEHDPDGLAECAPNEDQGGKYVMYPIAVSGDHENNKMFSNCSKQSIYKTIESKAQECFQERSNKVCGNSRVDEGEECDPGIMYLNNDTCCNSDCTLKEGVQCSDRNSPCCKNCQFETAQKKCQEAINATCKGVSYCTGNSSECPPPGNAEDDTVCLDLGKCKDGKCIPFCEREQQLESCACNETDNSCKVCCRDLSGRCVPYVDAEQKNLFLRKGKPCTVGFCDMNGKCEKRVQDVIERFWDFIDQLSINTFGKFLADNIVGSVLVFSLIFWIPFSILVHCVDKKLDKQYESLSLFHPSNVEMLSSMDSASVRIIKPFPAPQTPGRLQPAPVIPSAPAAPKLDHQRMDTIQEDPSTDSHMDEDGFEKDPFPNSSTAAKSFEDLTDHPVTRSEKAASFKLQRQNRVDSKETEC
Chain of Cytochrome P450 2D6 (P10635 whole entry): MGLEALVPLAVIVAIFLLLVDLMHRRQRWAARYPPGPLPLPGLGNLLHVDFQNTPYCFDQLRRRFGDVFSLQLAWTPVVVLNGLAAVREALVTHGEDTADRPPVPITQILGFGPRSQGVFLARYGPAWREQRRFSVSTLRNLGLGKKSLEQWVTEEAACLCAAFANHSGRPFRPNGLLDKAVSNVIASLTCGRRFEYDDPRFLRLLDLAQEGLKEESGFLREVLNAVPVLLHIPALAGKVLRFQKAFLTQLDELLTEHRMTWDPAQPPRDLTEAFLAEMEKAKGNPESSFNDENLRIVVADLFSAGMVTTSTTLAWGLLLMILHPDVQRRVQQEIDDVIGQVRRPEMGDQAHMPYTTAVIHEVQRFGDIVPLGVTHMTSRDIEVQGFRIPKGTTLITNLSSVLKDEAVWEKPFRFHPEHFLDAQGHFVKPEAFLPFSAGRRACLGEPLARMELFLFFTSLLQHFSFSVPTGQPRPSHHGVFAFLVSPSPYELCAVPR
Chain of Cytochrome P450 3A4 (P08684 whole entry): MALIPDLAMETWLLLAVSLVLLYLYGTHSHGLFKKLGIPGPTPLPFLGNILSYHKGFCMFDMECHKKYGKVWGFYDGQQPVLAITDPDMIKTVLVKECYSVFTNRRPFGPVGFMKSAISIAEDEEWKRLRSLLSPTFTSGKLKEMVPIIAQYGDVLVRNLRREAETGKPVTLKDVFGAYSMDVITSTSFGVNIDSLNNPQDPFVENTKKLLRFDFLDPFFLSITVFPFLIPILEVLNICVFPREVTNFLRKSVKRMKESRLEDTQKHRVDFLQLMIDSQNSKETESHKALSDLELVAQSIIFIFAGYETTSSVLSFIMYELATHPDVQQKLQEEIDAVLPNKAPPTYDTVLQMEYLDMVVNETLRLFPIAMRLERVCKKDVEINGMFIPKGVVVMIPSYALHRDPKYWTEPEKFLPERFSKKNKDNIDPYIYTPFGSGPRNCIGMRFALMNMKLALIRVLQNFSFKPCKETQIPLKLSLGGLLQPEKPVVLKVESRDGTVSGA
Chain of Protein Wnt-3a (P27467 whole entry): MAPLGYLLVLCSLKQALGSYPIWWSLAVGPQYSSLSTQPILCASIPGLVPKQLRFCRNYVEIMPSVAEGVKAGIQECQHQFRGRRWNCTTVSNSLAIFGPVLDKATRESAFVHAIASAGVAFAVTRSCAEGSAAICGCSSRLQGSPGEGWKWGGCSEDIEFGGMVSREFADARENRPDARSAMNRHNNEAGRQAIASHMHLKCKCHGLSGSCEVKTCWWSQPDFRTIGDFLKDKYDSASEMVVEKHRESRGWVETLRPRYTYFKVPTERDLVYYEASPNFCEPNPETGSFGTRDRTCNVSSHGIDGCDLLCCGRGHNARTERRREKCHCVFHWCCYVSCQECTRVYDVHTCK
Chain of Eukaryotic translation initiation factor 4E (P63073 whole entry): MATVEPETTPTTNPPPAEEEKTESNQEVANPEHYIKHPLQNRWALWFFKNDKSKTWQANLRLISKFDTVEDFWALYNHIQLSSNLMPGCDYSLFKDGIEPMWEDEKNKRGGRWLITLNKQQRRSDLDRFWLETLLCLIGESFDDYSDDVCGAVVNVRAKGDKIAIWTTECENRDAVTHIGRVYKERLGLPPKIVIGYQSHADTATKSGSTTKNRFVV

SMILES: CC(C)[C@H]1COCn2nncc2CCCC(=O)N1
AC50 [1]: > 39 µM (inactive)

SMILES: CC[C@@]12C(=O)N(c3cccc(F)c3)C(=O)N1[C@H](c1ccc(Cl)cc1)[C@@H]1C(=O)N(C3CCCCC3)C(=O)[C@@H]12
AC50 [2]: 0.416 µM (active) | AC50 [3]: < 0.26 µM (active) | AC50 [4]: < 0.26 µM (active) | AC50 [5]: 0.329 µM (active)

SMILES: C[C@H](CO)N1C[C@H](C)[C@H](CN(C)C(=O)NC2CCCCC2)Oc2ncc(-c3cccc(C(F)(F)F)c3)cc2C1=O
AC50 [6]: 37.8 µM (active)

IC50 [7]: > 80 µM (inactive) | IC50 [8]: 6.62 µM (active) | IC50 [9]: 50 µM (inactive)
SMILES: COc1ccc(-c2cnnc(N/N=C/c3ccc(-c4ccc([N+](=O)[O-])cc4)o3)n2)cc1

SMILES: C[C@H](CO)N1C[C@H](C)[C@H](CN(C)C(=O)Nc2ccc(C(F)(F)F)cc2)Oc2c(NC(=O)c3ccc(-c4nccs4)cc3)cccc2C1=O
AC50 [10]: 4.22 µM (active) | AC50 [1]: 5 µM (active)

SMILES: COc1ccc(NS(=O)(=O)c2cccc(NC(=O)c3ccc(S(=O)(=O)N4CCCCCC4)cc3)c2)cc1
AC50 [11]: 0.829 µM (active) | AC50 [12]: 38.8 µM (active) | AC50 (INS1): 3.12 µM (active) | IC50 (Protein Wnt-3a): 1.76 µM (active)

AC50 (Cytochrome P450 3A4): 3.16 µM (inconclusive) | IC50 [13]: > 50 µM (not active) | AC50 (Cytochrome P450 2D6): 14.1 µM (inconclusive)
SMILES: O=[N+]([O-])c1ccc2c(c1NC1CCCCC1)=NC1(CCCCC1)[N+]=2[O-]

SMILES: N#Cc1cccc(-c2ccc([C@@H]3[C@@H]4CN(C(=O)c5ccccn5)C[C@H]3N4)cc2)c1
AC50 [14]: 15 µM (active) | AC50 [15]: 11.1 µM (active) | AC50 [16]: > 52 µM (inactive) | AC50 [17]: 13.2 µM (active)

IC50 [18]: > 69.5 µM (inactive)
SMILES: C=C(C)COc1ccc(-c2n[nH]c(C)c2Oc2ccccc2OC)c(O)c1

SMILES: CCOC(=O)[C@]12Cc3cc(OC)ccc3[C@H]1N(C1CCCCC1)C(=O)c1cc(OC)ccc12
IC50 [19]: 4.81 µM (active)

IC50 [20]: 14.9 µM (inactive)
SMILES: CC(C)(C)c1ccc(-c2cc(-c3ccccc3O)[nH]n2)cc1

IC50 [21]: > 50 µM (not active) | IC50 [7]: 15.5 µM (active) | IC50 [8]: 13.4 µM (active)
SMILES: COc1ccc(/N=c2\[nH]c(=O)c3cc([N+](=O)[O-])ccc3s2)cc1

SMILES: C[C@@]12C(=O)N(c3cccc(Cl)c3)C(=O)N1[C@H](c1ccc(Cl)cc1)[C@@H]1C(=O)N(C3CCCCC3)C(=O)[C@@H]12
AC50 [2]: 2.26 µM (active) | AC50 [3]: 1.21 µM (active) | AC50 [4]: 1.31 µM (active) | AC50 [5]: 11.6 µM (active)

AC50 [22]: 8.41 µM (active)
SMILES: CN1CCN(c2nc(-c3ccncc3)nc3ccccc23)CC1

SMILES: Cc1cc(C)c(S(=O)(=O)N2CCN=C2c2ccccc2)cc1C
AC50 [2]: 10.1 µM (active) | AC50 [3]: 5.08 µM (active) | AC50 [4]: 7.73 µM (active) | AC50 [5]: 7.94 µM (active)

SMILES: CN(C)c1ccc(-c2nc3cc(N)ccc3o2)cc1
AC50 [15]: 2.28 µM (active) | AC50 [16]: > 52 µM (inactive) | AC50 [17]: 3.58 µM (active)

IC50 [13]: > 50 µM (not active)
SMILES: Cc1ccccc1NC(=S)Nc1cccc2cnccc12

IC50 [20]: 8.72 µM (active)
SMILES: C=C(C)COc1ccc(-c2[nH]nc(C)c2Oc2ccccc2OC)c(O)c1

AC50 [22]: 32.4 µM (active) | IC50 [7]: 37.2 µM (inactive) | IC50 [8]: 17 µM (active)
SMILES: c1ccc(-c2nc(NCCCN3CCOCC3)c3ccccc3n2)cc1

SMILES: CCc1ccc2oc(-c3ccc(N)cc3)nc2c1
AC50 [14]: > 52 µM (inactive) | IC50 (Protein skinhead-1): 46.2 µM (active) | AC50 [15]: 7.42 µM (active) | AC50 [16]: > 52 µM (inactive) | AC50 [17]: 4.19 µM (active)

IC50 [20]: > 69.5 µM (inactive) | IC50 [18]: > 69.5 µM (inactive)
SMILES: O=C(N/N=C/c1cn(-c2cccs2)nc1-c1ccccc1)c1ccccc1Cl
